Results as given in patent publication US10064848B2, “Pyridic ketone derivatives, method of preparing same, and pharmaceutical application thereof” (Shanghai Hengrui Pharmaceutical Co., Ltd., priority 2013, dated 2018).

Legend:
[1] = biological target: T1, MAP2K2 (MEK2) Recombinant Human Protein (Homo sapiens, UniProt P36507); assay: MEK2 kinase inhibition assay (Z'-LYTE, MEK2/ERK2 coupled); assay type: biochemical; conditions: recombinant human MEK2 with ERK2, Z'-LYTE, 1.5 hours at 25° C; read-out: IC50 for inhibiting MEK kinase (MEK2)
T1 construct: purchased Invitrogen PV3615 (MEK2); PV3314 (ERK2)
Description: MEK2 kinase activity was tested in vitro by the following method.
MEK kinase used in the assay:
MAP2K2 (MEK2) Recombinant Human Protein (Invitrogen, Catalog No. PV3615)
MAPK1 (ERK2) Recombinant Human Protein (Invitrogen, Catalog No. PV3314)
(§1) Kit used in the assay: Z′-LYTE™ Kinase Assay Kit-Ser/Thr 03 Peptide (Invitrogen, Catalog No. PV3176).
The following in vitro assay was used to determine the activity of the compounds of the present invention for inhibiting the […] MEK kinase. The test compound was dissolved in dimethyl sulfoxide to the desired concentration. 1× Buffer A (Invitrogen, Catalog No. PV3189) was prepared, ATP was diluted with 1× Buffer A to obtain 400 μM ATP solution, appropriate amounts of Z′-LYTE™ Ser/Thr 03 Peptide (Invitrogen, Catalog No. PV3200), MEK kinase (MEK 2) enzymes, (ERK2) enzymes and 1× Buffer A were mixed, and appropriate amounts of Z′-LYTE™ Ser/Thr 03 phosphoPeptide substrate (Invitrogen, Catalog No. PV3215) and 1× Buffer A were formulated into a mixture to be tested. The 4% DMSO solution of the test compound was prepared from 1× buffer and DMSO solution of the test compound. 2.5 μL DMSO solution of the test compound was added to a reaction well, and then 2.5 μL of 400 μM ATP solution, 5 μL of enzyme and substrate mixture were added to become a 10 μL reaction system. The reaction system was incubated for 1.5 hours at 25° C., and a mixture was prepared according to Reagent A:Buffer B=1:1024. 5 μL of a mixture of Reagent A (Invitrogen, Catalog No. PV3295) and Buffer B (Invitrogen, Item No. P3127) was added to a reaction well, the reaction system was incubated for 60 minutes at 25° C., and then the fluorescence was read by a NovoStar ELISA with excitation wavelength: 400 nm, and emission wavelength: 445 nm and 520 nm.
The above assay was used to determine the biochemical activity of the compounds of the present invention for inhibiting MEK kinase (MEK2).

[2] = biological target: T2, MEK1 (Recombinant Human Protein) (Homo sapiens, UniProt Q02750); assay: MEK1 kinase inhibition assay (Z'-LYTE Kinase Assay Kit-Ser/Thr 03 Peptide); assay type: biochemical; conditions: 4 hours at 37° C, read-out: IC50 for inhibiting MEK kinase (MEK1)
T2 construct: purchased Invitrogen PV3093
Description: MEK1 kinase activity was tested in vitro by the following method.
MEK kinase used in the assay: MEK1 (Recombinant Human Protein, Invitrogen, Catalog No. PV3093).
as §1
The following in vitro assay was used to determine the activity of the compounds of the present invention for inhibiting the […] MEK kinase. The test compound was dissolved in dimethyl sulfoxide to the desired concentration. 1× Buffer A (Invitrogen, Catalog No. PV3189) was prepared, ATP was diluted with 1× Buffer A to obtain 400 μM ATP solution, appropriate amounts of Z′-LYTE™ Ser/Thr 03 Peptide (Invitrogen, Catalog No. PV3200), MEK kinase (MEK1) Enzymes and 1× Buffer A were mixed, and appropriate amounts of Z′-LYTE™ Ser/Thr 03 phosphoPeptide substrate (Invitrogen, Catalog No. PV3215) and 1× Buffer A were formulated into a mixture to be tested. The 4% DMSO solution of the test compound was prepared from 1× buffer and DMSO solution of the test compound. 2.5 μL DMSO solution of the test compound was added to a reaction well, and then 1× Buffer A, 2.5 μL of 400 μM ATP solution, 5 μL of enzyme and substrate mixture were added to become a 10 μL of reaction system. The reaction system was incubated for 4 hours at 37° C., and a mixture was prepared according to Reagent A:Buffer B=1:1024. 5 μL of a mixture of Reagent A (Invitrogen, Catalog No. PV3295) and Buffer B (Invitrogen, Catalog No. P3127) was added to a reaction well, the reaction system was incubated for 60 minutes at 25° C. The fluorescence was read by a NovoStar ELISA with excitation wavelength: 400 nm, and emission wavelength: 445 nm and 520 nm.
The activity of the compounds of the present invention: The above assay was used to determine the biochemical activity of the compounds of the present invention for inhibiting MEK kinase (MEK1).

[3] = Pharmacokinetics assay in SD rats, intragastric administration; assay type: in vivo, Sprague-Dawley (SD) rats; conditions: 10 mg/kg; for AUC / CL/F / half-life / MRT / Cmax: both sexes, Sprague-Dawley, rat, plasma, po; for AUC: read-out: Area Under Curve AUC; for CL/F: read-out: Clearance CL/F; for half-life: read-out: Half-Life T½ (converted); for MRT: read-out: Mean Residence Time MRT; for Cmax: read-out: Plasma Conc. Cmax
Description: Sprague-Dawley (SD) rats were used as test animals. The compounds of Example 1, Example 22, Example 29 and Example 31 were administered intragastrically to rats to determine the drug concentration in plasma at different time points by a LC/MS/MS method. The pharmacokinetic behavior of the compounds of the present invention was studied and evaluated in rats.
16 Healthy adult SD rats, half male and half female, purchased from SINO-BRITSH SIPPR/BK LAB. ANIMAL LTD., CO, Certificate No.: SCXK (Shanghai) 2008-0016, were divided into four groups, with 4 rats in each group.
The appropriate amounts of test compounds were weighed and mixed with 40 μL of tween 80 and 0.5% CMC-Na to prepare a 1 mg/mL suspension by an ultrasonic method.
After an overnight fast, 16 SD rats, half male and half female, were divided into 4 groups, with 4 rats in each group, and administered the test compounds intragastrically at a dose of 10 mg/kg, and an administration volume of 10 mL/kg.
Blood samples (0.1 mL) were taken from the orbital sinus before administration, and at 0.5 h, 1 h, 2 h, 4 h, 6 h, 8 h, 11 h, 24 h and 48 h after administration, stored in heparinized tubes, and centrifuged for 10 minutes at 3,500 rpm to separate blood plasma. The plasma samples were stored at −20° C. The rats were fed 2 hours after administration.
The concentration of the test compounds in rat plasma after intragastrically administering the test compounds was analyzed by a LC-MS/MS method. The linearity range of the method is 1.00-2000 ng/ml, and the lower limit of quantification is 1.00 ng/ml. Plasma samples were analyzed after protein precipitation.

T2 sequence (Q02750 whole entry): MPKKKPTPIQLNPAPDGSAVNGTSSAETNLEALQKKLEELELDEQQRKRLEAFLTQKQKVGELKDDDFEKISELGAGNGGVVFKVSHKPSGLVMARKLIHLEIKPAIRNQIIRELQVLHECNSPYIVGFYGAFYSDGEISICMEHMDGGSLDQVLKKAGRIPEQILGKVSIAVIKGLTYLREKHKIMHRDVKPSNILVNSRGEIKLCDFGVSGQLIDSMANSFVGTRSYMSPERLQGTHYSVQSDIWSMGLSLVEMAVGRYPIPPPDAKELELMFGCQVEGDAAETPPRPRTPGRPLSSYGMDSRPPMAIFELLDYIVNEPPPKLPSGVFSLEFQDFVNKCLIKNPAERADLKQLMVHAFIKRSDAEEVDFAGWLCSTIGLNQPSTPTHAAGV
T1 sequence (P36507 whole entry): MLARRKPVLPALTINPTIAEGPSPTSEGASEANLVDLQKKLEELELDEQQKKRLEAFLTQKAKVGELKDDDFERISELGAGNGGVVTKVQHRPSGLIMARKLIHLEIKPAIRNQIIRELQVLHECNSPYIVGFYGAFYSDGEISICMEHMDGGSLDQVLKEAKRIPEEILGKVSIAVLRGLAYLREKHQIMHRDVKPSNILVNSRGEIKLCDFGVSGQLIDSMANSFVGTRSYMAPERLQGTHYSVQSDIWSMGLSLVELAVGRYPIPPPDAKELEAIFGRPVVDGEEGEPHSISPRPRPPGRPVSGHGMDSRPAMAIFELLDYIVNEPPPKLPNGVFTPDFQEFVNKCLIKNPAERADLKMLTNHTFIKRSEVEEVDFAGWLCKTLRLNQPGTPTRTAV

Structure (SMILES)	IC50 [1]	IC50 [2]	Apparent Distribution Volume Vd [3]	AUC [3]	CL/F [3]	half-life [3]	MRT [3]	Cmax [3]
Cc1cc(F)ccc1Oc1cc(=O)n(C)c(Nc2ccc(I)cc2F)c1C(N)=O [Example 22, 4-(4-fluoro-2-methylphenoxy)-2-((2-fluoro-4-iodophenyl)amino)-1-methyl-6-oxo-1,6-dihydropyridine-3-carboxamide]	121 nM	4.3 nM	98.789 ± 42.165 L/kg	1110 ± 746 ng·h/mL	224 ± 151 mL/min/kg	7.18 ± 4.64 h	11.3 ± 6.7 h	108 ± 38 ng/mL
Cc1ncccc1Oc1cc(=O)n(C)c(Nc2ccc(I)cc2F)c1C(N)=O [Example 29, 2-((2-fluoro-4-iodophenyl)amino)-1-methyl-4-((2-methylpyridin-3-yl)oxy)-6-oxo-1,6-dihydropyridine-3-carboxamide]	217 nM	3.6 nM	11.319 ± 6.87 L/kg	6120 ± 3030 ng·h/mL	32.9 ± 15.5 mL/min/kg	3.79 ± 0.76 h	3.79 ± 0.5 h	1440 ± 396 ng/mL
Cc1ccc(Oc2cc(=O)n(C)c(Nc3ccc(I)cc3F)c2C(N)=O)cn1 [Example 31, 2-((2-fluoro-4-iodophenyl)amino)-1-methyl-4-((6-methylpyridin-3-yl)oxy)-6-oxo-1,6-dihydropyridine-3-carboxamide]	351 nM	3.9 nM	4.483 ± 3.051 L/kg	18100 ± 9970 ng·h/mL	11.6 ± 5.9 mL/min/kg	4.12 ± 0.96 h	4.43 ± 0.96 h	3370 ± 756 ng/mL

Molecules with a lower IC50 [1], results first:

IC50 [1]	IC50 [2]	Apparent Distribution Volume Vd [3]	AUC [3]	CL/F [3]	half-life [3]	MRT [3]	Cmax [3]	Structure (SMILES)
108 nM	4.7 nM	163.863 ± 87.909 L/kg	642 ± 187 ng·h/mL	280 ± 94.6 mL/min/kg	6.61 ± 1.66 h	10.5 ± 2.41 h	56.3 ± 15.6 ng/mL	Cc1c(F)cccc1Oc1cc(=O)n(C)c(Nc2ccc(I)cc2F)c1C(N)=O [Example 1, 4-(3-fluoro-2-methylphenoxy)-2-((2-fluoro-4-iodophenyl)amino)-1-methyl-6-oxo-1,6-dihydropyridine-3-carboxamide]
19.8 nM	4.1 nM	–	–	–	–	–	–	CCS(=O)(=O)Nc1cccc(Oc2cc(=O)n(C)c(Nc3ccc(I)cc3F)c2C(N)=O)c1C [Example 3, 4-(3-(ethylsulfonamido)-2-methylphenoxy)-2-((2-fluoro-4-iodophenyl)amino)-1-methyl-6-oxo-1,6-dihydropyridine-3-carboxamide]
